≈ marks a conversion by molar mass, not a printed value.
Tests used:
Format in all cases: functional, cell-based
Daoy = assay: Cytotoxicity against human Daoy cell line by MTT assay
WiDr = assay: Cytotoxicity against human WiDr cell line by MTT assay
HeLa = assay: Cytotoxicity against human HeLa cell line by MTT assay
DLD-1 = assay: Cytotoxicity against human DLD1 cell line by MTT assay

C=C1CC[C@@H]2CC[C@H](OC(=O)C/C(C)=C/[C@@H](OC(=O)c3ccccc3)C1)C(=O)C2(C)C
IC50 (Daoy): > 20 µg/mL
IC50 (WiDr): > 20 µg/mL

C=C1CC[C@@H]2CC[C@H](OC(=O)C/C(C)=C/[C@@H](OC(=O)c3ccc(Cl)cc3)C1)C(=O)C2(C)C
IC50 (Daoy): > 20 µg/mL
IC50 (WiDr): > 20 µg/mL

CC(=O)O[C@@H]1/C(C(C)C)=C\C=C(/C)CC/C=C(\C)CC[C@@H]2O[C@@]2(C)[C@H]1OC(C)=O
IC50 (Daoy): 16.9 µg/mL (≈ 41.8 µM)
IC50 (WiDr): 13.8 µg/mL (≈ 34.1 µM)

C=C1CC[C@@H]2CC[C@H](OC(=O)C/C(C)=C/[C@@H](OC(C)=O)C1)C(=O)C2(C)C [CESPITULACTONE A MONOACETATE]
IC50 (Daoy): > 20 µg/mL
IC50 (WiDr): > 20 µg/mL

C=C1CC[C@@H]2CC[C@H](OC(=O)C/C(C)=C/[C@@H](O)C1)C(=O)C2(C)C [CESPITULACTONE A]
IC50 (Daoy): > 20 µg/mL
IC50 (WiDr): > 20 µg/mL
IC50 (HeLa): 3.69 µg/mL (≈ 11.5 µM)
IC50 (DLD-1): 9.98 µg/mL (≈ 31.1 µM)

C=C1CC[C@@H]2CCC3=C(C2(C)C)[C@@](OC)(C/C(C)=C/[C@@H](O)C1)OC3=O [CESPITULACTONE B]
IC50 (Daoy): > 20 µg/mL
IC50 (WiDr): > 20 µg/mL

C=C1CC[C@@H]2CCC3=C(C2(C)C)[C@@](O)(C/C(C)=C/[C@@H](O)C1)OC3=O [CESPITULARIN D]
IC50 (Daoy): > 20 µg/mL
IC50 (WiDr): > 20 µg/mL

C=C1CC[C@@H]2CCC3=C(C(=O)[C@@H](/C(C)=C/C(O)C1)[C@H]3O)C2(C)C (stereo not given in full) [CESPITULARIN F]
IC50 (Daoy): > 20 µg/mL
IC50 (WiDr): > 20 µg/mL

C=C1CC[C@@H]2CCC3=C(C(=O)[C@@H](/C(C)=C/[C@@H](OC(C)=O)C1)[C@H]3O)C2(C)C [CESPITULARIN J]
IC50 (Daoy): > 20 µg/mL
IC50 (WiDr): > 20 µg/mL

Reference: ChEMBL document CHEMBL1146998, “Cespitulactones A and B, new diterpenoids from Cespitularia taeniata” (Bioorg Med Chem Lett, 2006)
